# What was measured:
# Format in all cases: cell-based, human
# [1] = test system: c-raf mRNA; assay: c-raf mRNA levels by Northern blot in HMVEC
# Method: Human dermal microvascular cells (HMVEC-d; Clonetics, San Diego, Calif.) were cultivated in endothelial basal media (EBM, Clonetics) supplemented with 10% fetal bovine serum (HyClone, Logan, Utah). Cells were grown in 100 mm petri dishes until 70-80% confluent, then washed with PBS and OPTI-MEM (Life Technologies, Inc., Gaithersburg, Md.). The cells were then incubated in the presence of OPTI-MEM and […] LIPOFECTIN (a 1:1 (w/w) liposome formulation of the cationic lipid N-[1-(2,3-dioleyloxy)propyl]-n,n,n-trimethylammonium chloride (DOTMA), and dioleoyl phosphotidylethanolamine (DOPE) in membrane filtered water (Life Technologies, Gaithersburg, Md.), per 100 nM of oligonucleotide followed by addition of oligonucleotide at the appropriate concentrations.
# For determination of mRNA levels by Northern blot, total RNA was prepared from cells by the guanidinium isothiocyanate procedure or by the Qiagen RNAEASY method (Qiagen, Santa Clarita, Calif.) at the indicated times after initiation of oligonucleotide treatment. Northern blot analysis was performed as described in Current Protocols in Molecular Biology (Ausubel, F. M., et al., (eds), 1987, Greene Publishing Assoc. and Wiley Interscience, New York). A glyceraldehyde 3-phosphate dehydrogenase (G3PDH) probe was purchased from Clontech (Palo Alto, Calif., Catalog Number 9805-1). RNA was quantified and normalized to G3PDH mRNA levels using a Molecular Dynamic PHOSPHORIMAGER (Sunnyvale, Calif.).
# (§1) ISIS 12854 (SEQ ID NO. 2) is a 2'-O-methoxyethyl mixed backbone chimeric antisense oligonucleotide designed to hybridize with 3'-untranslated sequences contained within human c-raf mRNA. To determine whether this antisense oligonucleotide is effective as a c-raf inhibitor in endothelial cells, human dermal microvascular cells (HMVEC) were treated with ISIS 12854 (SEQ ID NO. 2) as described in Example 2. C-raf mRNA and protein expression was examined by northern and Western blot analysis. The c-raf cDNA probe was generated from the plasmid, p627 (American Type Culture Collection, Manassas, Va.; catalog #41050), following the supplied instructions. The c-raf antibody was obtained from Transduction Laboratories, Inc. (Lexington, Ky.).
# [2] = test system: c-raf protein; assay: c-raf protein levels by Western blot in HMVEC
# Method: (§2) For determination of protein levels by Western blot, cellular extracts were prepared using […] of RIPA extraction buffer per 100-mm dish. The protein concentration was quantified by Bradford assay using the BioRad kit (BioRad, Hercules, Calif.). Equal amounts of protein were loaded on 10% or 12% SDS-PAGE mini-gel (Novex, San Diego, Calif.). Once transferred to PVDF membranes (Millipore, Bedford, Mass.), the membranes were then treated for a minimum of 2 hours with specific primary antibody followed by incubation with secondary antibody conjugated to HRP. The results were visualized by Enhanced Chemiluminescent (ECL) detection (New England BioLab, Beverly, Mass.). In some experiments, the blots were stripped in stripping buffer (2% SDS, 12.5 mM Tris, pH 6.8) for 30 minutes at 50° C. After extensive washing, the blots were blocked and blotted with different primary antibody.
# as §1
# [3] = test system: A-raf protein; assay: A-raf protein expression by Western blot in HMVEC; conditions: same blot stripped and blotted with antibody against A-raf
# Method: as §2
# Reduction of c-raf protein levels also occurred following oligonucleotide treatment. Reduction in protein expression was first detectable 24 hours after treatment and maximal reduction of c-raf protein levels was achieved 48 hours after treatment with 150 nM oligonucleotide. Reduction of c-raf protein levels persisted up to 72 hour following initial treatment.
# [4] = test system: ERK; assay: TNF-α-stimulated ERK activity, in vitro kinase assay on extracts of treated cells; conditions: 48 hours recovery, TNF-α 5 or 15 minutes
# Method: (§3) To examine the effect of the c-raf antisense oligonucleotide (ISIS 12854, SEQ ID NO. 2) on ERK, JNK, and p38 MAPK activities stimulated by TNF-α, in vitro kinase assays were performed on extracts derived from cells treated with ISIS 12854 (SEQ ID NO. 2). Cells were treated with oligonucleotides and induced with cytokines. At the indicated time, cells were lysed on ice and debris was removed by centrifugation. Protein concentration was measured by Bradford assay. Lysate containing equal amounts of protein were incubated with primary antibody-agarose conjugates (ERK and p38 assay; Santa Cruz Biotechnology, Santa Cruz, Calif.), or with JNK1-specific or JNK2-specific antibodies (JNK assay; Upstate Biotechnology, Lake Placid, N.Y.), overnight at 4° C.
# (§4) For isoform-specific JNK assays, anti-rabbit IgG conjugated with agarose beads was added to cell extracts following JNK antibody treatment and wash steps and incubated for 2 hours at 4° C. […]
# (§5) Cells were treated with the c-raf antisense compound, ISIS 12854 (SEQ ID NO. 2), allowed to recover for 48 hours, at which time TNF-α was added for 5 or 15 minutes prior to cell lysis and initiation of the kinase assays. […] Suitable substrates and ATP were added to the immunoprecipitated kinase complexes and the reaction mixes were analyzed on SDS-PAGE. […]
# [5] = test system: JNK; assay: TNF-α-stimulated JNK activity, in vitro kinase assay on extracts of treated cells; conditions: 48 hours recovery, TNF-α 5 or 15 minutes
# Method: as §3, §4, §5
substance,measurement,setting,value
ToCoCoCoGoCsCsTsGsTsGsAsCsAsToGoCoAoToT [ISIS 12854],% mRNA Expression (c-raf),[1]; 0.5 nM,67%
same,% mRNA Inhibition (c-raf),[1]; 0.5 nM,33%
same,% mRNA Expression (c-raf),[1]; 2.5 nM,31%
same,% mRNA Inhibition (c-raf),[1]; 2.5 nM,69%
same,% mRNA Expression (c-raf),[1]; 10 nM,15%
same,% mRNA Inhibition (c-raf),[1]; 10 nM,85%
same,% mRNA Expression (c-raf),[1]; 50 nM,10%
same,% mRNA Inhibition (c-raf),[1]; 50 nM,90%
same,% mRNA Expression (c-raf),[1]; 100 nM,13%
same,% mRNA Inhibition (c-raf),[1]; 100 nM,87%
same,% mRNA Expression (c-raf),[1]; 200 nM,3%
same,% mRNA Inhibition (c-raf),[1]; 200 nM,97%
same,IC50,[1]; read-out: IC50 for c-raf mRNA reduction,~2.5 nM
same,time of maximal reduction of c-raf protein levels,[2]; after treatment with 150 nM oligonucleotide,48 h
same,time at which reduction in c-raf protein expression was first detectable,"[2]; after treatment, Western blot",24 h
same,persistence of reduction of c-raf protein levels,[2]; following initial treatment,up to 72 hour
same,A-raf protein expression,[3],largely unaffected
same,ERK activity,[4],reduced
same,JNK activity,[5],inhibited
